# According to patent publication US20230295119A1, “SUBSTITUTED PYRIDINES FOR THE TREATMENT OF INFLAMMATORY DISEASES” (GOSSAMER BIO SERVICES, INC., priority 2020, published 2023):
# Legend:
# [1] = biological target: TYK2 JH2 domain (Homo sapiens (Human), UniProt P29597); test: TYK2 JH2 NanoBRET assay; type: binding; conditions: Table 20, read-out: TYK2 IC50
# Method: HEK293T cells were transfected with NanoLuc-TYK2 JH2 Fusion Vector (Promega, customized) using Trans-IT reagent (Mirus, #MIR2700) and incubated for overnight in 37° C. incubator. […] Add 85 µL of cell suspension into white, polypropylene, 96-well plates (Corning, #3600). 90 µL of cells were used for no tracer control samples. 5 µL of diluted NanoBRET K10 tracer (Promega, #CS1810C122) were added to cells to a final concentration of 0.5 µM. Test compounds were diluted into DMSO, and then phenol-free opti-MEM to 10X of final concentration. 10 µL of diluted compounds were added into each well. The cells were incubated with test compound and tracer for 2 hours. 3XNanoBRET® Nano-Glo® Substrate and Extracellular NanoLuc® Inhibitor mixture were prepared and 50 µL of the mixture were added into the wells and mixed. […] NanoBRET signal was determined by using the ratio of acceptor signal and donor signal.
# [2] = biological target: human JAK1 (Homo sapiens (Human), UniProt P23458); test: JAK1 TR-FRET kinase assay; type: biochemical; conditions: TR-FRET, JAK1 2.5 nM
# Chain of human JAK1 (P23458 whole entry): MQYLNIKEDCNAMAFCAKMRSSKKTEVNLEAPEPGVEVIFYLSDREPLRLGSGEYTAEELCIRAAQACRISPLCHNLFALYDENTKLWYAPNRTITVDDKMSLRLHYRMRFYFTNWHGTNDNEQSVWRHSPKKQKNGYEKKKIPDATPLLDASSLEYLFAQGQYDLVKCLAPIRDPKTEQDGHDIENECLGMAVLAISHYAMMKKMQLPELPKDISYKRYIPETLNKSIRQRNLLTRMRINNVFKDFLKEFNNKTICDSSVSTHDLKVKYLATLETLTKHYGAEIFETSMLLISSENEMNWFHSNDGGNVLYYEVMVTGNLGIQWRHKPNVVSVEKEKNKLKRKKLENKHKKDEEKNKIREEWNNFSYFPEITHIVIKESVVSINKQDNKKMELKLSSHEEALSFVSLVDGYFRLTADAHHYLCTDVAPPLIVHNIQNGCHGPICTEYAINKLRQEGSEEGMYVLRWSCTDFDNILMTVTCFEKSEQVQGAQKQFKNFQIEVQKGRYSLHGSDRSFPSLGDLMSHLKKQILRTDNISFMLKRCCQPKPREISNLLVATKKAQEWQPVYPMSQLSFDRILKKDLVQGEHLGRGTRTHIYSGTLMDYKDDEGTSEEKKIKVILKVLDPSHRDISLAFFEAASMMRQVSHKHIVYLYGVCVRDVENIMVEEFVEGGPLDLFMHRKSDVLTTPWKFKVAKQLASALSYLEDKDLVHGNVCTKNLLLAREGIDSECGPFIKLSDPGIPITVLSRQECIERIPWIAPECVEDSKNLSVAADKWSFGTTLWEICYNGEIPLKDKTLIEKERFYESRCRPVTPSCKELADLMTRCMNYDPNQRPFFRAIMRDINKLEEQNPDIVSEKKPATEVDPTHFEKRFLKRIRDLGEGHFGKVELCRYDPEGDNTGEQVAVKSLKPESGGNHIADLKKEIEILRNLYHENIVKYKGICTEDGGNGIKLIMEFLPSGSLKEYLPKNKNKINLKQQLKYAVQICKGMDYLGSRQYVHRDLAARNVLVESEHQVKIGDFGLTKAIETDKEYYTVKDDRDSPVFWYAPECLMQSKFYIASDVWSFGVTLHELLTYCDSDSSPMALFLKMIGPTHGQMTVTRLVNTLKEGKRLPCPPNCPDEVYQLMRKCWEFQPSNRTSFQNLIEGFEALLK
# [3] = biological target: human JAK2 (Homo sapiens (Human), UniProt O60674); test: JAK2 TR-FRET kinase assay; type: biochemical; conditions: JAK2 0.025 nM
# Chain of human JAK2 (O60674 whole entry): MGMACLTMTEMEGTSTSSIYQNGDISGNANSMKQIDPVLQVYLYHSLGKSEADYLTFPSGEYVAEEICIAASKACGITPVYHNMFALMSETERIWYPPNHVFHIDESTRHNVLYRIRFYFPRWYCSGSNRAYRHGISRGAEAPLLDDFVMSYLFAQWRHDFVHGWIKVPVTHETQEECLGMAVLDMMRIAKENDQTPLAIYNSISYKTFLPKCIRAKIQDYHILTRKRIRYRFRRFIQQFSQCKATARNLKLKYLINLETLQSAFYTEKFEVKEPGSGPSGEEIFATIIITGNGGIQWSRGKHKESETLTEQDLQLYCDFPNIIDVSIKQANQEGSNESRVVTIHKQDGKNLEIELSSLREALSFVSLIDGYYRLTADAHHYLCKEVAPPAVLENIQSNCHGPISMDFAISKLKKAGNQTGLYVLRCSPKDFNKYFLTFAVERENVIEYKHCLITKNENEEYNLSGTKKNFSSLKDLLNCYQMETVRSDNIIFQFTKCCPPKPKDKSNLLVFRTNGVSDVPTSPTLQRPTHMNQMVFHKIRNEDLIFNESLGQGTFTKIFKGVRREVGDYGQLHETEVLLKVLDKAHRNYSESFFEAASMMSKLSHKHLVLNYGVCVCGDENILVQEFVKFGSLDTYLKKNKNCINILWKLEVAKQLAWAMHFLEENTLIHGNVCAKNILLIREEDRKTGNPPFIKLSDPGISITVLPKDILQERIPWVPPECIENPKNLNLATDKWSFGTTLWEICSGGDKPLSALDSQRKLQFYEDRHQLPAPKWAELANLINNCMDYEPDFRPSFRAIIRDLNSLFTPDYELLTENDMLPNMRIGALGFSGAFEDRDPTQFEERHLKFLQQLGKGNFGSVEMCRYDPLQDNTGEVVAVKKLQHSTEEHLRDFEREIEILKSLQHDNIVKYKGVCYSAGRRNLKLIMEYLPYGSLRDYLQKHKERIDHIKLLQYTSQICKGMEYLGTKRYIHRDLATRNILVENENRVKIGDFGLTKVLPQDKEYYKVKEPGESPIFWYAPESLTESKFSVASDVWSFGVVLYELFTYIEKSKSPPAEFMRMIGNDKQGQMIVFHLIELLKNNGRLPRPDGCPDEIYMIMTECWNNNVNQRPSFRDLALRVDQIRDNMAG
# [4] = biological target: human JAK3 (Homo sapiens (Human), UniProt P52333); test: JAK3 TR-FRET kinase assay; type: biochemical; conditions: JAK3 0.0125 nM
# Chain of human JAK3 (P52333 whole entry): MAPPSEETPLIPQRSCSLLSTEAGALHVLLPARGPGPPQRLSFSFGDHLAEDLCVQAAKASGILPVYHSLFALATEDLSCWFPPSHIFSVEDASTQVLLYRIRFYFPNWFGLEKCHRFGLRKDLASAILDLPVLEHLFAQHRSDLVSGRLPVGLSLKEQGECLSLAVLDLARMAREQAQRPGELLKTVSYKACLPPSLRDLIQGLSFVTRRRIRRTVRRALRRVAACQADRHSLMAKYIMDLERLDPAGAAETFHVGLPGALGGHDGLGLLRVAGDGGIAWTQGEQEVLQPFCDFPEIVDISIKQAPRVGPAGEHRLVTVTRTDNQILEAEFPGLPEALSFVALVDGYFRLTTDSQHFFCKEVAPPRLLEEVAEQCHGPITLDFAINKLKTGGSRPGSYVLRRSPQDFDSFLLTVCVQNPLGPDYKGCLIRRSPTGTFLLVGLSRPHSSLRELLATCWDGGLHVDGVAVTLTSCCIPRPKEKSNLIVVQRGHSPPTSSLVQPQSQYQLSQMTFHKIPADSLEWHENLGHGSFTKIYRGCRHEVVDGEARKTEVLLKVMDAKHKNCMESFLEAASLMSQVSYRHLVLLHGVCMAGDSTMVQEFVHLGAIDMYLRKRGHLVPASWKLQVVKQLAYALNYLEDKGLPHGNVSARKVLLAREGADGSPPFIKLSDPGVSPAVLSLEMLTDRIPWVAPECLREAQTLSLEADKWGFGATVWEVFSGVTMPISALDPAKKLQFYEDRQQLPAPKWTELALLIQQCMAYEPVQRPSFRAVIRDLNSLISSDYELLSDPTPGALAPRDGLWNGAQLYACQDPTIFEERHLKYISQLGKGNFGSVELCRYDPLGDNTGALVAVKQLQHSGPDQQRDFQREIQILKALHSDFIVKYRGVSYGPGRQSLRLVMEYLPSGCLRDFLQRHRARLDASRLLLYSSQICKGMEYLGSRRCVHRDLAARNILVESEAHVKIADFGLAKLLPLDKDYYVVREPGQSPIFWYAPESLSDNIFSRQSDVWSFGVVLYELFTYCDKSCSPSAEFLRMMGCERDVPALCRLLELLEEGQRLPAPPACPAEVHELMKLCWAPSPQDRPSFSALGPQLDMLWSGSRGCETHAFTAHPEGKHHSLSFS
# Chain of TYK2 JH2 domain (P29597 589-875): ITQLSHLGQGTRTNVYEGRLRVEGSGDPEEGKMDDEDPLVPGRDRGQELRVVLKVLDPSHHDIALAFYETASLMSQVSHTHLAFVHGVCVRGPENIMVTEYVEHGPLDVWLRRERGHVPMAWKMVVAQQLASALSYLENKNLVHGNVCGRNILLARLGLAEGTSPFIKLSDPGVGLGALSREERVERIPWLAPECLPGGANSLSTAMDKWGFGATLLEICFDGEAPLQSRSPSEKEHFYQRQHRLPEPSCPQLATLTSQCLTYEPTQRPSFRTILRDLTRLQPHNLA
IC50 [1] [nM],IC50 [2] [nM],IC50 [3] [nM],IC50 [4] [nM],Structure (SMILES)
< 5,≥ 500,≥ 500,≥ 500,CCC(=O)c1cnc(Nc2cc(C(=O)N(C)C)ccn2)cc1Nc1cccc(-c2ncn(C)n2)c1OC [Compound 8H]
≥ 500,≥ 500,≥ 500,≥ 500,CCC(=O)c1cnc(Nc2cccc(C(=O)O)n2)cc1Nc1cccc(-c2ncn(C)n2)c1OC [Compound 8I]
< 5,≥ 500,≥ 500,≥ 500,CCC(=O)c1cnc(Nc2cccc(C(N)=O)n2)cc1Nc1cccc(-c2ncn(C)n2)c1OC [Compound 8J]
< 5,≥ 500,≥ 500,≥ 500,CCC(=O)c1cnc(Nc2cccc(C(=O)NC)n2)cc1Nc1cccc(-c2ncn(C)n2)c1OC [Compound 8K]
5 to 50,≥ 500,≥ 500,≥ 500,CCC(=O)c1cnc(Nc2cccc(C(=O)N(C)C)n2)cc1Nc1cccc(-c2ncn(C)n2)c1OC [Compound 8L]
< 5,≥ 500,≥ 500,≥ 500,CCC(=O)c1cnc(Nc2cc(C(N)=O)ncn2)cc1Nc1cccc(-c2ncn(C)n2)c1OC [Compound 8M]
< 5,≥ 500,≥ 500,≥ 500,CCC(=O)c1cnc(Nc2cc(C(=O)NC)ncn2)cc1Nc1cccc(-c2ncn(C)n2)c1OC [Compound 8N]
< 5,≥ 500,≥ 500,≥ 500,CCC(=O)c1cnc(Nc2cc(C(=O)N(C)C)ncn2)cc1Nc1cccc(-c2ncn(C)n2)c1OC [Compound 8O]
< 5,≥ 500,≥ 500,≥ 500,"CCC(=O)c1cnc(Nc2ccc(CN(C)C)cn2)cc1Nc1cccc(-c2ncn(C)n2)c1OC [Compound 9A, 1-(6-((5-((dimethylamino)methyl)pyridin-2-yl)amino)-4-((2-methoxy-3-(1-methyl-1H-1,2,4-triazol-3-yl)phenyl)amino)pyridin-3-yl)propan-1-one]"
< 5,≥ 500,≥ 500,≥ 500,CCC(=O)c1cnc(Nc2cnc(CN3CCCC3)cn2)cc1Nc1cccc(-c2ncn(C)n2)c1OC [Compound 9AAAA]
< 5,≥ 500,≥ 500,≥ 500,CCC(=O)c1cnc(Nc2ccc([C@H](C)N3CC4(COC4)C3)cn2)cc1Nc1cccc(-c2ncn(C)n2)c1OC [Compound 9AAA]
< 5,≥ 500,50 to 500,50 to 500,CCC(=O)c1cnc(Nc2ccc(C(C)NCC(F)F)cn2)cc1Nc1cccc(-c2ncn(C)n2)c1OC (stereo not drawn) [Compound 9AA]
< 5,≥ 500,≥ 500,≥ 500,CCC(=O)c1cnc(Nc2cnc(CN3CCN(C)CC3)cn2)cc1Nc1cccc(-c2ncn(C)n2)c1OC [Compound 9BBBB]
< 5,≥ 500,50 to 500,50 to 500,CCC(=O)c1cnc(Nc2ccc([C@@H](C)N3CC4(COC4)C3)cn2)cc1Nc1cccc(-c2ncn(C)n2)c1OC [Compound 9BBB]
5 to 50,≥ 500,≥ 500,≥ 500,CCC(=O)c1cnc(Nc2ccc(CN(C)CC#N)cn2)cc1Nc1cccc(-c2ncn(C)n2)c1OC [Compound 9BB]
< 5,≥ 500,≥ 500,≥ 500,CCC(=O)c1cnc(Nc2ccc(CN)cn2)cc1Nc1cccc(-c2ncn(C)n2)c1OC [Compound 9B]
5 to 50,≥ 500,≥ 500,≥ 500,CCC(=O)c1cnc(Nc2ncc(CN3CCCC3)cc2F)cc1Nc1cccc(-c2ncn(C)n2)c1OC [Compound 9CCCC]
< 5,≥ 500,≥ 500,≥ 500,CCC(=O)c1cnc(Nc2ccc(CN3CC4(CCOC4)C3)cn2)cc1Nc1cccc(-c2ncn(C)n2)c1OC [Compound 9CCC]
